Structures can show the parent of a compound that is named as a salt.
Each molecule was assayed against T1, recombinant guanylate cyclase reporter cell line (Rattus norvegicus, UniProt P19686+P20595) (assay: Effect on a recombinant guanylate cyclase reporter cell line (B-2)). Settings: in some cases mean values for individual determinations.
T1 construct: expressed in transfected cells
T1 sequence (P19686 1-690): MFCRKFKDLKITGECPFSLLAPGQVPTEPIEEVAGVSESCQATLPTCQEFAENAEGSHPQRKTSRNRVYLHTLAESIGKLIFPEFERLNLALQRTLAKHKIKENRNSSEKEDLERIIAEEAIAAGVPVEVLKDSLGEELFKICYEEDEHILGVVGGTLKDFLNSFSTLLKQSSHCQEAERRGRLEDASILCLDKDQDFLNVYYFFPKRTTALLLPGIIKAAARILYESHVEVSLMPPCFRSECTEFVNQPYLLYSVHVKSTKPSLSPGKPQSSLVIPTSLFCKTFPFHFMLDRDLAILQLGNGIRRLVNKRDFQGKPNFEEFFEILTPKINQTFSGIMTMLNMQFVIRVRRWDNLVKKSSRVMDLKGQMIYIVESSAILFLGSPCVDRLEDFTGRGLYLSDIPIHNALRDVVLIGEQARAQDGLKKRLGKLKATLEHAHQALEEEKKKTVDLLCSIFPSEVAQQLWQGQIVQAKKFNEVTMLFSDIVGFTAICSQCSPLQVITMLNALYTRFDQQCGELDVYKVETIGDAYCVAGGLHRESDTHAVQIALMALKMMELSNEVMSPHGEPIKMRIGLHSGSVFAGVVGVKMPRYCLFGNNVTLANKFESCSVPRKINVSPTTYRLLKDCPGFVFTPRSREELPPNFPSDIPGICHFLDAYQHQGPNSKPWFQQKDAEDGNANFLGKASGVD
T1 sequence (P20595 1-619): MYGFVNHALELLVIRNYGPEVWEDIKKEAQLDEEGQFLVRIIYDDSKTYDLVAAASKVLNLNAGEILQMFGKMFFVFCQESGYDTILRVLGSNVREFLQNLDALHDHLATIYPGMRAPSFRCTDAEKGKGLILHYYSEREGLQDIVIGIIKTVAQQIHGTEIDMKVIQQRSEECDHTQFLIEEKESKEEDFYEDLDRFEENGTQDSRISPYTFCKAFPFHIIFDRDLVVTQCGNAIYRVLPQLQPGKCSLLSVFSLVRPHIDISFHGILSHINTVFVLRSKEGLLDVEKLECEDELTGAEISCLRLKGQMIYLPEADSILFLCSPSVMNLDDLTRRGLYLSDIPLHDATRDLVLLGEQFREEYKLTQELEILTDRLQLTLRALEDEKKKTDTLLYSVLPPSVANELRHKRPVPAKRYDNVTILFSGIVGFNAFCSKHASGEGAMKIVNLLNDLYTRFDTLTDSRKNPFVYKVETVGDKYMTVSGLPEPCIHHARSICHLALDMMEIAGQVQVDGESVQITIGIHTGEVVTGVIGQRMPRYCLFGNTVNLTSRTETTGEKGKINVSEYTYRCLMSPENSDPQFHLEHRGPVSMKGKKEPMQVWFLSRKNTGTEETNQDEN
Assay type: cell-based
Description: B-2. Effect on a Recombinant Guanylate Cyclase Reporter Cell Line
The cellular effect of the inventive compounds is determined using a recombinant guanylate cyclase reporter cell line, as described in F. Wunder et al., Anal. Biochem. 339, 104-112 (2005).
Representative MEC values (MEC=minimum effective concentration) for the inventive compounds are shown in the table below (in some cases as mean values for individual determinations): […]

Row | Structure (SMILES) | MEC (minimum effective concentration)
1 | CCCC(C)(N)CNC(=O)c1c(C)nn2c(OCCC(C)C)cc(C)cc12 (racemic) [Example 160, rac-N-(2-Amino-2-methylpentyl)-2,5-dimethyl-7-(3-methylbutoxy)pyrazolo[1,5-a]pyridine-3-carboxamide] | 3.0 µM
2 | CCCC(C)(N)CNC(=O)c1cnn2c(OCc3c(F)cccc3F)cc(C)cc12 (single isomer, unassigned) [Example 53, ent-N-(2-Amino-2-methylpentyl)-7-[(2,6-difluorobenzyl)oxy]-5-methylpyrazolo[1,5-a]pyridine-3-carboxamide] | 3.0 µM
3 | Cc1cc(OCc2c(F)cccc2F)n2nc(C)c(C(=O)NNC(=O)CN(C)C)c2c1 [Example 67, 7-[(2,6-Difluorobenzyl)oxy]-N′-[(dimethylamino)acetyl]-2,5-dimethylpyrazolo[1,5-a]pyridine-3-carbohydrazide] | 3.0 µM
4 | Cc1cc(OCc2c(F)cccc2F)n2nc(C)c(C(=O)NCC(N)c3cnn(C)c3)c2c1 (racemic) [Example 136, rac-N-[2-Amino-2-(1-methyl-1H-pyrazol-4-yl)ethyl]-7-[(2,6-difluorobenzyl)oxy]-2,5-dimethylpyrazolo[1,5-a]pyridine-3-carboxamide] | 10 µM
5 | COC(=O)[C@H]1CC[C@H](CNC(=O)c2c(C)nn3c(OCc4c(F)cccc4F)cc(C)cc23)CC1 [Example 35, Methyl trans-4-{[({7-[(2,6-difluorobenzyl)oxy]-2,5-dimethylpyrazolo[1,5-a]pyridin-3-yl}carbonyl)amino]methyl}cyclohexanecarboxylate] | 1.0 µM
6 | Cc1cc(OCc2c(F)cccc2F)n2nc(C)c(C(=O)NCC3(N)CC3)c2c1 [Example 118, N-[(1-Aminocyclopropyl)methyl]-7-[(2,6-difluorobenzyl)oxy]-2,5-dimethylpyrazolo[1,5-a]pyridine-3-carboxamide] | 0.3 µM
7 | Cc1cc(OCc2c(F)ccc(F)c2F)n2nc(C)c(C(=O)NCc3ccccc3-n3ccnc3)c2c1 [Example 32, N-[2-(1H-Imidazol-1-yl)benzyl]-2,5-dimethyl-7-[(2,3,6-trifluorobenzyl)oxy]pyrazolo[1,5-a]pyridine-3-carboxamide] | 0.3 µM
8 | Cc1cc(OCc2c(F)cccc2F)n2nc(C)c(C(=O)N[C@@H]3CCNC3=O)c2c1 [Example 98, 7-[(2,6-Difluorobenzyl)oxy]-2,5-dimethyl-N-[(3R)-2-oxopyrrolidin-3-yl]pyrazolo[1,5-a]pyridine-3-carboxamide] | 3.0 µM
9 | Cc1cc(OCc2c(F)ccc(F)c2F)n2nc(C)c(C(=O)N[C@H]3CCOC3=O)c2c1 [Example 27, 2,5-Dimethyl-N-[(3S)-2-oxotetrahydrofuran-3-yl]-7-[(2,3,6-trifluorobenzyl)oxy]pyrazolo[1,5-a]pyridine-3-carboxamide] | 0.3 µM
10 | Cc1cc(OCc2c(F)cccc2F)n2nc(C)c(C(=O)NC34CCC(C(=O)O)(CC3)CC4)c2c1 [Example 153, 4-[({7-[(2,6-Difluorobenzyl)oxy]-2,5-dimethylpyrazolo[1,5-a]pyridin-3-yl}carbonyl)amino]bicyclo[2.2.2]octane-1-carboxylic Acid] | 3.0 µM
11 | Cc1cc(OCc2c(F)cccc2F)n2nc(C)c(C(=O)N[C@@H](CO)c3nnc([C@@H](N)C(C)C)o3)c2c1 [Example 179, N-[(1S)-1-{5-[(1S)-1-Amino-2-methylpropyl]-1,3,4-oxadiazol-2-yl}-2-hydroxyethyl]-7-[(2,6-difluorobenzyl)oxy]-2,5-dimethylpyrazolo[1,5-a]pyridine-3-carboxamide] | 10 µM
12 | Cc1cc(OCc2c(F)cccc2F)n2nc(C)c(C(=O)Nc3ccnc4ccc(F)cc34)c2c1 [Example 80, 7-[(2,6-Difluorobenzyl)oxy]-N-(6-fluoroquinolin-4-yl)-2,5-dimethylpyrazolo[1,5-a]pyridine-3-carboxamide trifluoroacetate] | 0.03 µM
13 | Cc1ccc2c(c1)OC(C)(C)CC2NC(=O)c1c(C)nn2c(OCc3c(F)cccc3F)cc(C)cc12 (racemic) [Example 137, rac-7-[(2,6-Difluorobenzyl)oxy]-2,5-dimethyl-N-(2,2,7-trimethyl-3,4-dihydro-2H-chromen-4-yl)pyrazolo[1,5-a]pyridine-3-carboxamide] | 1.0 µM
14 | CCCC(C)(N)CNC(=O)c1c(C)nn2c(OCc3ncccc3F)cc(C)cc12 (racemic) [Example 166, rac-N-(2-Amino-2-methylpentyl)-7-[(3-fluoropyridin-2-yl)methoxy]-2,5-dimethylpyrazolo[1,5-a]pyridine-3-carboxamide] | 10 µM
15 | Cc1cc(OCc2c(F)cccc2F)n2nc(C)c(C(=O)N[C@H]3c4ccccc4C[C@H]3O)c2c1 [Example 71, 7-[(2,6-Difluorobenzyl)oxy]-N-[(1S,2R)-2-hydroxy-2,3-dihydro-1H-inden-1-yl]-2,5-dimethylpyrazolo[1,5-a]pyridine-3-carboxamide trifluoroacetate] | 0.3 µM
16 | Cc1cc(OCc2c(F)cccc2F)n2nc(C)c(C(=O)NCC(N)c3ccc4ncccc4c3)c2c1 (racemic) [Example 103, rac-N-[2-Amino-2-(quinolin-6-yl)ethyl]-7-[(2,6-difluorobenzyl)oxy]-2,5-dimethylpyrazolo[1,5-a]pyridine-3-carboxamide] | 10 µM
17 | Cc1cc(OCc2c(F)ccc(F)c2F)n2nc(C)c(C(=O)Nc3c(C)nn(Cc4ccc(F)cc4)c3C)c2c1 [Example 16, N-[1-(4-Fluorobenzyl)-3,5-dimethyl-1H-pyrazol-4-yl]-2,5-dimethyl-7-[(2,3,6-trifluorobenzyl)oxy]pyrazolo[1,5-a]pyridine-3-carboxamide] | 0.3 µM
18 | Cc1cc(OCc2c(F)cccc2F)n2nc(C)c(C(=O)NCCCCCC#N)c2c1 [Example 63, N-(5-Cyanopentyl)-7-[(2,6-difluorobenzyl)oxy]-2,5-dimethylpyrazolo[1,5-a]pyridine-3-carboxamide] | 1.0 µM
19 | Cc1cc(OCc2c(F)cccc2F)n2nc(C)c(C(=O)N[C@@H](CC(=O)O)CC(C)C)c2c1 [Example 38, (3R)-3-[({7-[(2,6-Difluorobenzyl)oxy]-2,5-dimethylpyrazolo[1,5-a]pyridin-3-yl}carbonyl)amino]-5-methylhexanoic Acid] | 3.0 µM
20 | Cc1cc(OCc2c(F)cccc2F)n2nc(C)c(C(=O)NCC(C)(N)CCOCc3ccccc3)c2c1 (racemic) [Example 78, rac-N-[2-Amino-4-(benzyloxy)-2-methylbutyl]-7-[(2,6-difluorobenzyl)oxy]-2,5-dimethylpyrazolo[1,5-a]pyridine-3-carboxamide] | 1.0 µM
21 | Cc1cc(OCc2c(F)ccc(F)c2F)n2nc(C)c(C(=O)NCCN(CC(F)F)C3CC3)c2c1 [Example 26, N-{2-[Cyclopropyl(2,2-difluoroethyl)amino]ethyl]-2,5-dimethyl-7-[(2,3,6-trifluorobenzyl)oxy]pyrazolo[1,5-a]pyridine-3-carboxamide] | 0.3 µM
22 | CC(=O)NCCNC(=O)c1c(C)nn2c(OCc3c(F)cccc3F)cc(C)cc12 [Example 96, N-(2-Acetamidoethyl)-7-[(2,6-difluorobenzyl)oxy]-2,5-dimethylpyrazolo[1,5-a]pyridine-3-carboxamide] | 10 µM
23 | Cc1cc(OCc2c(F)ccc(F)c2F)n2nc(C)c(C(=O)Nc3c(C)nn(CCO)c3C)c2c1 [Example 11, N-[1-(2-Hydroxyethyl)-3,5-dimethyl-1H-pyrazol-4-yl]-2,5-dimethyl-7-[(2,3,6-trifluorobenzyl)oxy]pyrazolo[1,5-a]pyridine-3-carboxamide] | 1.0 µM

Source: patent publication US9422285B2, “Substituted pyrazolo[1,5-A]-pyridine-3-carboxamides and use thereof” (Bayer Pharma Aktiengesellschaft, priority 2014, dated 2016)
